Measurements reported in patent US20010036948A1 (priority 1998, published 2001).
Where “and” joins values, the source holds several entries; their conditions need not be identical. Equal entries are not always repeated.

Assays:
[1] = system: T/G Human Aortic Smooth Muscle Cells; type: cell-based; for Growth score: key: −: Lethal treatment, no cells left viable, all rounded, shriveled and dead; −/+: Some treated cells remain viable, about equal amount of clearly dead cells; +/−: Most cells remain viable, detectable number of dead cells; 1+: All cells appear viable, same density as when treated; 2+: Minimal proliferation, compared to control; 3+: Moderate proliferation compared to control; 4+: Maximal growth, unaffected by treatment
Vero cells = type: cell-based, monkey
[2] = system: T/G HA-VSMC cells (human aortic smooth muscle cell system); type: cell-based

SMILES	Growth score [1]	Effect on the increase in the number of cultured cells (Vero cells)	Effect on the increase in the number of cultured cells [2]	Effect on the increase in the number of cultured cells [1]
NC(Cc1ccc(N(CCCl)CCCl)cc1)C(=O)O (centres unmarked) [Melphalan, melphalan, reference compound]	2+ and 1+ and 3+ and 4+	–	–	–
O=C(CCNc1c2ccccc2nc2ccccc12)OCCN(CCCl)CCCl [β-alanine, N-(acridin-9-yl), 2-[bis(2-chloroethyl)amino]ethyl ester]	−/+ and 1+ and +/− and 3+ and 4+	inhibited the increase in the number	inhibited the increase in the number	inhibited the increase in the number of cultured Human Aortic Smooth Muscle Cells in a dose-dependent manner with a relatively broad therapeutic window
